Assay results published in article PMC12693135, “Ocular Toxicity and Mechanistic Investigation for Berberine and Its Metabolite Berberrubine on Zebrafish” (Molecules, 2025).

Experiments:
[1] = MTT cytotoxicity assay on HCE-T cells; format: cell-based, human; settings: human, HCE-T human corneal epithelial cells; HCE-T cells, 24 h incubation
Description: (§1) The human corneal epithelial cell line HCE-T (Cellosaurus accession: CVCL_1272, RRID: CVCL_1272, RCB: RCB2280) was purchased from Procell Life Science and Technology Co., Ltd. (Wuhan, China). […] were cultured in high-glucose Dulbecco’s Modified Eagle Medium (DMEM), which was purchased from Procell Life Science and Technology Co., Ltd. (Wuhan, China). The high-glucose DMEM was DMEM basic medium supplemented with 15% fetal bovine serum (Procell), 1% penicillin/streptomycin (Procell), 5 μg/mL insulin, and 10 ng/mL human epidermal growth factor (Procell).
(§2) HCE-T cells were seeded in 96-well plates (8 × 10^3 cells/well, 100 μL medium) and cultured overnight at 37 °C, 5% CO2 for adhesion. BBR or its metabolites at various concentrations (BBR and M3 at the concentrations of 31.25, 62.5, 125, 250 and 500 µM, M1 and M4 at the concentrations of 25, 50, 100, 200 and 400 µM) in 0.5% DMSO were added and incubated for 24 h, with 0.5% DMSO in culture medium as the vehicle control. Subsequently, 20 μL MTT (5 mg/mL) was added to each well and the cells were cultured at 37 °C for 4 h. Then, the culture medium was removed, and 150 μL DMSO was added to dissolve formazan crystals and the absorbance at 570 nm was measured on a Synergy H1 multifunctional microplate reader (Biotek, Winooski, VT, USA). The IC50 values of test compounds were calculated by Graphpad Prism 8.5 (GraphPad Software Co., San Diego, CA, USA).

[2] = system: human corneal epithelial (HCE-T) cell line; assay: MTT cytotoxicity assay on HCE-T cells; format: cell-based
Description: as §1, §2

SMILES	IC50 at 24 h [1] [µM]	IC50 [2] [µM]
COc1cc2c(cc1O)CC[n+]1cc3c(OC)c(OC)ccc3cc1-2 [M4, jatrorrhizine]	> 400	
COc1ccc2cc3[n+](cc2c1OC)CCc1cc(O)c(O)cc1-3 [M3, demethyleneberberine]		> 400
